# According to ChEMBL document CHEMBL4765264, “Design, synthesis and biological evaluation of novel 2-(5-aryl-1H-imidazol-1-yl) derivatives as potential inhibitors of the HIV-1 Vpu and host BST-2 protein interaction” (Eur J Med Chem, 2020):
# Legend:
# [1] = (§1) Inhibition of recombinant HIV1 Viral Protein U expressed in Escherichia coli BL21(DE3) cells/BST-2 (unknown origin) interaction at 100 uM preincubated for 30 mins with viral protein U followed by further incubation with BST-2 for 1 hr by sandwich ELISA relative to control; conditions: time 90.0 min
# [2] = as §1, with “recombinant biotinylated” for “recombinant”, “BL21(DE3)cells/recombinant GST-tagged BST-2” for “BL21(DE3) cells/BST-2”, “Alphascreen assay” for “sandwich ELISA”; conditions: time 90.0 min
# [3] = Inhibition of recombinant biotinylated HIV1 Viral Protein U expressed in Escherichia coli BL21(DE3) cells/recombinant GST-tagged BST-2 (unknown origin) interaction preincubated for 30 mins with viral protein U followed by further incubation with BST-2 for 1 hr by Alphascreen assay
# [4] = Cytotoxicity against human MT4 cells assessed as inhibition of cell viability incubated for 72 hrs by MTS assay; type: cell-based
# [5] = test system: Human immunodeficiency virus 1; test: Antiviral activity against HIV1 LAV infected in human MT4 cells assessed as reduction in viral replication by measuring reduction in p24 expression incubated for 72 hrs by ELISA; type: functional, organism-based; conditions: Human immunodeficiency virus 1, LAV, MT4, 72 h
# [6] = Selectivity index, ratio of CC50 for human MT4 cells to EC50 for antiviral activity against HIV1 LAV infected in human MT4 cells; type: toxicity, cell-based; conditions: MT4 cells (CC50) and HIV1 LAV infected MT4 cells (EC50)
# [7] = Aqueous solubility of the compound in phosphate buffer saline at 100 uM at wavelength of 250 nm incubated for overnight under shaking condition by filtration assay based UV-visible spectroscopy; type: physicochemical
# [8] = Aqueous solubility of the compound in phosphate buffer saline at 200 uM at wavelength of 250 nm incubated for overnight under shaking condition by filtration assay based UV-visible spectroscopy; type: physicochemical
# [9] = test system: Human immunodeficiency virus 1; test: Antiviral activity against HIV1 infected in PBMC assessed as reduction in viral replication by measuring reduction in p24 production by ELISA; type: functional, organism-based; conditions: Human immunodeficiency virus 1, PBMC
Compound,inhibition [1],other results
CC(C)(C)c1ccc(-c2cncn2CC(=O)NN)cc1,45%,
CC(C)(C)c1ccc(-c2cncn2CC(=O)O)cc1,2%,
CCOC(=O)Cn1cncc1-c1ccc(F)cc1,54%,inhibition [2]: 55%
O=C(O)Cn1cncc1-c1ccccc1,0%,
CCOC(=O)[C@H](C)n1cncc1-c1ccccc1,22%,
NNC(=O)Cn1cncc1-c1ccccc1,39%,
COc1ccc(-c2cncn2CC(=O)NN)cc1O,72%,inhibition [2]: 60%
COc1cccc(-c2cncn2CC(=O)NN)c1,69%,inhibition [2]: 68%; IC50 [3]: 17.6 µM; CC50 at 72 h [4]: 160 µM; EC50 [5]: 158 µM; selectivity ratio [6]: 1; solubility at 100 µM [7]: ≥ 100 µM; solubility at 200 µM [8]: ≥ 200 µM
CCOC(=O)[C@H](C)n1cncc1-c1ccc(F)cc1,63%,inhibition [2]: 64%
COc1ccc(-c2cncn2CC(=O)O)cc1OC,25%,
COc1ccc(-c2cncn2CC(=O)NN)cc1OC,28%,
CCOC(=O)Cn1cncc1-c1ccc(OC)c(OC)c1,58%,inhibition [2]: 61%
CCOC(=O)Cn1cncc1-c1ccc(C(C)(C)C)cc1,17%,
CCOC(=O)Cn1cncc1-c1ccc(OC)c(O)c1,30%,
CCOC(=O)[C@H](C)n1cncc1-c1ccc(OC)c(OC)c1,20%,
CCOC(=O)Cn1cncc1-c1ccc2c(c1)OCO2,33%,
O=c1cnn([C@@H]2O[C@H](CO)[C@@H](O)[C@H]2O)c(=S)[nH]1,54%,
Cc1nnc(C(=O)NC(C)(C)c2nc(C(=O)NCc3ccc(F)cc3)c(O)c(=O)n2C)o1 [RALTEGRAVIR],,EC50 [5]: 0.0079 µM; EC50 [9]: ≤ 0.008 µM
O=C(O)Cn1cncc1-c1ccc2c(c1)OCO2,9%,
O=C(O)Cn1cncc1-c1ccc(F)cc1,11%,
CCOC(=O)Cn1cncc1-c1ccccc1,82%,inhibition [2]: 83%; IC50 [3]: 11.6 µM; CC50 at 72 h [4]: 184 µM; EC50 [5]: 6.3 µM; selectivity ratio [6]: 29; solubility at 100 µM [7]: ≥ 100 µM; solubility at 200 µM [8]: ≥ 200 µM
COc1ccc(-c2cncn2CC(=O)O)cc1O,0%,
CCOC(=O)Cn1cncc1-c1cccc(OC)c1,51%,inhibition [2]: 56%
COc1cccc(-c2cncn2CC(=O)O)c1,30%,
NNC(=O)Cn1cncc1-c1ccc2c(c1)OCO2,22%,
NNC(=O)Cn1cncc1-c1ccc(F)cc1,48%,
